# Test results published in patent publication US10226044B2, “Agricultural and horticultural composition and method for cultivating plant” (AJINOMOTO CO., INC., priority 2014, dated 2019).
# Key:
# Assay type in all cases: in vivo
# [1] = system: cherry tomato (Suncherry Pure); conditions: 10 mM sprinkled once a week
# Protocol: Three seeds of cherry tomato (Suncherry Pure, Tokita Seed) were shown in compost contained in a slit pot, and cultivated in the same manner as described in Example 1, provided that the cultivation was performed in a greenhouse as in Example 2. The compost and application of fertilizer were the same or performed in the same manner as those described in Example 1. One month after the sowing, each seedling was permanently planted in a 9.0-cm long pot (top diameter 9 cm, height 20 cm, bottom diameter 6.4 cm), and cultivated until harvest. As for application of fertilizer, a 200-fold diluted solution of Vegetable Life A (Otsuka Chemical) was additionally applied as a fertilizer by irrigation in a volume of 100 mL per one root clump (pot) every two days from one month after the sowing to the harvest. After the plants of four root clumps uniformly grew, and flower buds began to appear, water (Con.), 10 mM L-isoleucine aqueous solution (Ile), or 10 mM proline aqueous solution (Pro) was sprinkled on the whole plants once a week. The sprinkled volume was adjusted in accordance with the growth of the plants, and it was 15 to 30 mL per one root clump. Then, ripening of fruit, number of fruit, amino acid content of fruit juice, sugar content and acidity of fruit juice, and antioxidant capacity of fruit juice were investigated for each root clump.
# [2] = system: tomato fruit (Suncherry Pure); assay: Coloring and carotenoid content of harvested immature tomato fruit sprinkled with Ile
# Protocol: Then, the beakers were closed with plastic wrap, and left for 5 hours; then the wrap was removed, and the fruit were left as they were. The test was performed at room temperature, and the sprinkling of water and Ile solution was performed twice in total at an interval of one week. […] The tomato fruit of which seeds were removed were frozen with liquid nitrogen, and ground in a mortar. […] The extraction mixture was centrifuged for 5 minutes (8000 rpm), and the chloroform layer as the lower layer was transferred to a new tube. Chloroform (0.5 mL) was added again to the former tube, extraction was performed in the same manner, and the chloroform layer was fully taken out, and transferred to the latter tube containing the aforementioned chloroform extract. Then, chloroform was evaporated from the obtained extract by using a centrifugal evaporator. Then, a sample solution was prepared by adding 0.5 mL of chloroform to the residue to dissolve it, and carotenoids contained in the sample solution were analyzed. For the measurement of carotenoids, the extraction sample was diluted 100 times with chloroform, and absorbance thereof was measured at the extinction wavelength of carotenoids (480 nm) by using DU800 Spectrophotometer (Beckman Coulter).
# tomato (Momotaro Fight) = assay: Sprinkling of various compounds on tomato (Momotaro): first appearance, coloring and number of fruit
# Protocol: Three seeds of tomato (Momotaro Fight) were shown in compost contained in a slit pot, and cultivated in the same manner as described in Example 1, provided that the cultivation was performed in a greenhouse (daytime temperature was 25° C. (6:00 to 20:00), and night temperature was 15° C. (20:00 to 6:00)). The compost and application of fertilizer were the same or performed in the same manner as those described in Example 1. After 3 weeks, one root clump was left, and the others were thinned out. When a flower cluster of the first tier appeared, a support was put up, and after a flower cluster of the second tier appeared, pinching was performed (pinching of terminal bud). After the plants of four root clumps uniformly grew, and flower buds began to appear, water (Con.), 10 mM L-isoleucine aqueous solution (Ile), 10 mM monosodium glutamate aqueous solution (GluNa), 5 mM urea aqueous solution (Urea), or 10 mM phenylalanine aqueous solution (Phe) was sprinkled on the whole plants every two weeks. The sprinkled volume was adjusted in accordance with the growth of the plants, and it was 15 to 30 mL per one root clump. The concentration of urea was 5 mM so that nitrogen amount provided by it was the same as that provided by each of the amino acids. Then, the first appearance of fruit, ripening of fruit, and number of fruit produced were investigated for each root clump.
# [3] = system: cherry tomato (Suncherry Pure); assay: Amino acid analysis of tomato fruit obtained with sprinkling of Ile or Pro
# Protocol: After the plants of four root clumps uniformly grew, and flower buds began to appear, water (Con.), 10 mM L-isoleucine aqueous solution (Ile), or 10 mM proline aqueous solution (Pro) was sprinkled on the whole plants once a week. The sprinkled volume was adjusted in accordance with the growth of the plants, and it was 15 to 30 mL per one root clump.
# Mature fruit were taken from each of the cherry tomato plants sprinkled with water, Ile, or Pro, and the amino acid content was analyzed for each. Two pieces of fruit were taken from the flower cluster of the second tier of one root clump, that is, a total of 8 pieces of fruit were taken for each test group. Fruit juice was pressed out of each piece of fruit, and the fruit juice was diluted 10 times with 0.02 N HCl, and subjected to filter filtration. The amino acids contained in the obtained filtrate were measured. Measurement of the amino acids was performed with High Speed Amino Acid Analyzer L-8800 (Hitachi) according to the manual of this instrument. The amounts of the amino acids (μmol/mL) in each fruit juice filtrate were calculated, and the averages for eight pieces of fruit were used as the amino acid amounts of the corresponding test group.
# [4] = fruit juice, plants sprinkled with 10 mM solution once a week, average of 8 fruit
smiles,measurement,setting,value
"CC[C@H](C)[C@H](N)C(=O)O [Ile, L-isoleucine]","final crop yield: number of fruit produced, larger as compared to water (Con.)",[1],16%
same,number of tomatoes that had changed color,[1],"larger in the order of the tomato plants sprinkled with Ile, Pro, and water (Con.)"
same,color of harvested fruit around the 27th day,"[2]; 10 mM Ile, 1 mL on six immature fruit, twice at an interval of one week, room temperature, water control still green",began to turn color
same,color of harvested fruit around the 34th day,"[2]; 10 mM Ile, sprinkled twice, water control still half-mature orange",turned color to a fully mature red
same,carotenoid content of the tomato fruit,"[2]; around the 27th day, absorbance at 480 nm, compared to fruit treated with water",higher
same,color of fruit obtained from flowers that bloomed on the same day,"tomato (Momotaro Fight); 10 mM, fruit of water-sprinkled plant was green",already turned color to red
same,number of fruit turning color to orange or red,"tomato (Momotaro Fight); 107th day after sowing, per four root clumps, water: 0",4
same,number of harvested fruits,"tomato (Momotaro Fight); after cultivation for 3 months after sowing, per four root clumps, water: 8",16
same,many kinds of essential amino acids including branched chain amino acids and aromatic amino acids in fruit,"[3]; 10 mM sprinkled once a week, compared to control",increased
same,Ala in fruit juice,[3]; [4],4.51 µmol/mL
same,Arg in fruit juice,[3]; [4],0.14 µmol/mL
same,Asn in fruit juice,[3]; [4],0.55 µmol/mL
same,Asp in fruit juice,[3]; [4],1.33 µmol/mL
same,Cys in fruit juice,[3]; [4],0.21 µmol/mL
same,Gln in fruit juice,[3]; [4],1.1 µmol/mL
same,Glu in fruit juice,[3]; [4],6.46 µmol/mL
same,Gly in fruit juice,[3]; [4],0.35 µmol/mL
same,His in fruit juice,[3]; [4],0.19 µmol/mL
same,Ile in fruit juice,[3]; [4],0.23 µmol/mL
same,Leu in fruit juice,[3]; [4],0.39 µmol/mL
same,Lys in fruit juice,[3]; [4],0.33 µmol/mL
same,Met in fruit juice,[3]; [4],0.09 µmol/mL
same,Phe in fruit juice,[3]; [4],0.5 µmol/mL
same,Pro in fruit juice,[3]; [4],0.33 µmol/mL
same,Ser in fruit juice,[3]; [4],0.67 µmol/mL
same,Thr in fruit juice,[3]; [4],0.3 µmol/mL
same,Total amino acids in fruit juice,[3]; [4],20.25 µmol/mL
same,Trp in fruit juice,[3]; [4],0.06 µmol/mL
same,Tyr in fruit juice,[3]; [4],0.082 µmol/mL
same,Val in fruit juice,[3]; [4],0.21 µmol/mL
same,γ-ABA in fruit juice,[3]; [4],6.42 µmol/mL
